Laboratory results reported in patent US8017775B2, “1-2-dihydroquinoline derivative having glucocorticoid receptor binding activity” (Santen Pharmaceutical Co., Ltd., priority 2005, dated 2011).

target: T1, Recombinant human GR (Homo sapiens, UniProt P04150); assay: GR competitor assay by fluorescence polarization (GR binding ratio); conditions: positive control 2 mM dexamethasone, a GR binding ratio of 100% or more is indicated by 100%
T1 construct: purchased Invitrogen P2816
T1 sequence (P04150 1-777): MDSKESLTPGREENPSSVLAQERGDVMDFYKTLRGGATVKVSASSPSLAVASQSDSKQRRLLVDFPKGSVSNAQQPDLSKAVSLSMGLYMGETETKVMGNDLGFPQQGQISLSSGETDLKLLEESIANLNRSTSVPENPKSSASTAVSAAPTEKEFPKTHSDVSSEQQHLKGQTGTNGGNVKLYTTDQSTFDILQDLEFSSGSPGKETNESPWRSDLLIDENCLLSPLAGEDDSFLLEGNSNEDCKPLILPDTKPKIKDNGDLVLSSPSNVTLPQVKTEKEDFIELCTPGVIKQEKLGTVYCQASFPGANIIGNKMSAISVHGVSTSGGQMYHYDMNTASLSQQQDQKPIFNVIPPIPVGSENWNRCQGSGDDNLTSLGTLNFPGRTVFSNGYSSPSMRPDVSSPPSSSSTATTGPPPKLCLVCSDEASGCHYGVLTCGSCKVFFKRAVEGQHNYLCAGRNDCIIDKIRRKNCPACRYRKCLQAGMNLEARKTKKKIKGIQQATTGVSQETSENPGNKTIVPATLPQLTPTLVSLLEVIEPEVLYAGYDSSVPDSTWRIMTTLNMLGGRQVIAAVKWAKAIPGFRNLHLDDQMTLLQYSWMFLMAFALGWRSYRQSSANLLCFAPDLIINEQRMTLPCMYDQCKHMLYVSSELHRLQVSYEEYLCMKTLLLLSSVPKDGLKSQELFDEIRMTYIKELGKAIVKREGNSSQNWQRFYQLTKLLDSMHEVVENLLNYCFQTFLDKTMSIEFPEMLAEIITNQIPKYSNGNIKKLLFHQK
Description: 1. Evaluation Test for Binding Activity to Glucocorticoid Receptor (hereinafter referred to as “GR”)
In order to evaluate a binding activity to GR, a receptor competitor assay was carried out by a fluorescence polarization method. In the assay, a GR competitor assay kit (manufactured by Invitrogen, cat No. P2816) was used, and a procedure was carried out according to the protocol attached to the kit. Hereinafter, the specific method will be described.
GR screening buffer: A buffer containing 10 mM potassium phosphate (pH 7.4), 20 mM sodium molybdate (Na2MoO4), 0.1 mM ethylene diamine tetraacetic acid (EDTA), 5 mM dithiothreitol (DTT), 0.1 mM stabilizing peptide and 2% dimethylsulfoxide was prepared.
4×GS1 solution: Fluormone™ GS1, which is a fluorescent glucocorticoid ligand, was diluted with GR screening buffer, whereby a 4 nM solution was prepared.
4×GR solution: Recombinant human GR was diluted with GR screening buffer, whereby a 16 nM solution was prepared.
After a test compound was dissolved in dimethylsulfoxide, the resulting solution was diluted with GR screening buffer, whereby a 20 μM test compound solution was prepared.
1) The test compound solution was added in an amount of 25 μL or 10 μL into each well of a 96-well or 384-well plate, and then, 4×GS1 solution and 4×GR solution were added in an amount of 12.5 μL or 5 μL into each well, respectively.
2) The plate was incubated in a dark place at room temperature for 2 to 4 hours.
3) By using a multimode plate reader, Analyst™ HT (manufactured by LJL Biosystems), fluorescence polarization of each well was measured. As the blank, a well containing GR screening buffer in place of the test compound and 4×GS1 solution was used.
4) The same procedure as that in the above 1) to 3) was carried out except that GR screening buffer was used in place of the test compound solution, and the obtained result was taken as the negative control.
5) The same procedure as that in the above 1) to 3) was carried out except that 2 mM dexamethasone was used in place of the test compound solution, and the obtained result was taken as the positive control.
A GR binding ratio (%) was calculated from the following equation.
GR binding ratio (%)=100×[1−(fluorescence polarization of test compound solution−fluorescence polarization of positive control solution)/(fluorescence polarization of negative control solution−fluorescence polarization of positive control solution)]

Row | Structure (SMILES) | GR Binding ratio (%)
1 | COc1ccc(C(=O)OCc2c(-c3ccc(F)cc3OC)ccc3c2C(C)=CC(C)(C)N3)s1 [Compound 12-33, 6-(4-Fluoro-2-methoxyphenyl)-5-[(5-methoxythiophen-2-yl)carbonyloxymethyl]-2,2,4-trimethyl-1,2-dihydroquinoline] | ≥ 100
2 | COc1cc(F)ccc1-c1ccc2c(c1COC(=O)c1ccc3c(c1)OCO3)C(C)=CC(C)(C)N2 [Compound 12-42, 5-[(1,3-Benzodioxol-5-yl)carbonyloxymethyl]-6-(4-fluoro-2-methoxyphenyl)-2,2,4-trimethyl-1,2-dihydroquinoline] | 99
3 | COc1cc(F)c(F)cc1-c1ccc2c(c1COC(=O)c1cccs1)C(C)=CC(C)(C)N2 [Compound 12-53, 6-(4,5-Difluoro-2-methoxyphenyl)-5-[(thiophen-2-yl)carbonyloxymethyl]-2,2,4-trimethyl-1,2-dihydroquinoline] | ≥ 100
4 | COc1cc(F)c(F)cc1-c1ccc2c(c1COC(=O)c1ccc(C)s1)C(C)=CC(C)(C)N2 [Compound 12-54, 6-(4,5-Difluoro-2-methoxyphenyl)-5-[(5-methylthiophen-2-yl)carbonyloxymethyl]-2,2,4-trimethyl-1,2-dihydroquinoline] | ≥ 100
5 | CCOc1cc(F)ccc1-c1ccc2c(c1COC(=O)c1ccc(C)s1)C(C)=CC(C)(C)N2 [Compound 12-58, 6-(2-Ethoxy-4-fluorophenyl)-5-[(5-methylthiophen-2-yl)carbonyloxymethyl]-2,2,4-trimethyl-1,2-dihydroquinoline] | ≥ 100
6 | COc1ccc(C)cc1-c1ccc2c(c1COC(=O)c1ccc(C)s1)C(C)=CC(C)(C)N2 [Compound 12-67, 6-(2-Methoxy-5-methylphenyl)-5-(5-methylthiophen-2-yl-carbonyloxymethyl)-2,2,4-trimethyl-1,2-dihydroquinoline] | ≥ 100
7 | COc1ccc(Cl)cc1-c1ccc2c(c1COC(=O)c1ccc(C)s1)C(C)=CC(C)(C)N2 [Compound 12-69, 6-(5-Chloro-2-methoxyphenyl)-5-(5-methylthiophen-2-ylcarbonyloxymethyl)-2,2,4-trimethyl-1,2-dihydroquinoline] | ≥ 100
8 | COc1ccc(C(F)(F)F)cc1-c1ccc2c(c1COC(=O)c1ccc(C)s1)C(C)=CC(C)(C)N2 [Compound 12-73, 6-(2-Methoxy-5-trifluoromethylphenyl)-5-(5-methylthiophen-2-ylcarbonyloxymethyl)-2,2,4-trimethyl-1,2-dihydroquinoline] | ≥ 100
9 | COc1ccc(C(=O)OCc2c(-c3cc(F)ccc3OC)ccc3c2C(C)=CC(C)(C)N3)cc1 [Compound 12-75, 6-(5-Fluoro-2-methoxyphenyl)-5-(4-metoxybenzoyloxymethyl)-2,2,4-trimethyl-1,2-dihydroquinoline] | ≥ 100
10 | COc1ccc(F)cc1-c1ccc2c(c1COC(=O)c1ccc(C)s1)C(C)=CC(C)(C)N2 [Compound 12-76, 6-(5-Fluoro-2-methoxyphenyl)-5-(5-methylthiophen-2-ylcarbonyloxymethyl)-2,2,4-trimethyl-1,2-dihydroquinoline] | ≥ 100

Results, then the molecule that gave them:

Row | GR Binding ratio (%) | Structure (SMILES)
11 | ≥ 100 | COC(=O)Cc1ccccc1OCc1c(-c2ccc(F)cc2OC)ccc2c1C(C)=CC(C)(C)N2 [Compound 14-1, 6-(4-Fluoro-2-methoxyphenyl)-5-(2-methoxycarbonylmethylphenoxymethyl)-2,2,4-trimethyl-1,2-dihydroquinoline]
12 | ≥ 100 | COc1ccc(C)cc1-c1ccc2c(c1COc1cc(F)ccc1C)C(C)=CC(C)(C)N2 [Compound 14-11, 5-(5-Fluoro-2-methylphenoxymethyl)-6-(2-methoxy-5-methylphenyl)-2,2,4-trimethyl-1,2-dihydroquinoline]
13 | ≥ 100 | COc1ccc(Cl)cc1-c1ccc2c(c1COc1cc([N+](=O)[O-])ccc1C)C(C)=CC(C)(C)N2 [Compound 14-12, 6-(5-Chloro-2-methoxyphenyl)-5-(2-methyl-5-nitrophenoxymethyl)-2,2,4-trimethyl-1,2-dihydroquinoline]
14 | ≥ 100 | COc1ccc(Cl)cc1-c1ccc2c(c1COc1cc(F)ccc1C)C(C)=CC(C)(C)N2 [Compound 14-13, 6-(5-Chloro-2-methoxyphenyl)-5-(5-fluoro-2-methylphenoxymethyl)-2,2,4-trimethyl-1,2-dihydroquinoline]
15 | 99 | COc1ccc(C(F)(F)F)cc1-c1ccc2c(c1COc1cc(F)ccc1C)C(C)=CC(C)(C)N2 [Compound 14-15, 5-(5-Fluoro-2-methylphenoxymethyl)-6-(2-methoxy-5-trifluoromethylphenyl)-2,2,4-trimethyl-1,2-dihydroquinoline]
16 | 99 | C=CCc1ccccc1OCc1c(-c2cc(C)ccc2OC)ccc2c1C(C)=CC(C)(C)N2 [Compound 14-21, 5-(2-Allylphenoxymethyl)-6-(2-methoxy-5-methylphenyl)-2,2,4-trimethyl-1,2-dihydroquinoline]
17 | ≥ 100 | COc1ccc(F)cc1-c1ccc2c(c1COc1cc(C)ccc1C)C(C)=CC(C)(C)N2 [Compound 14-40, 5-(2,5-Dimethylphenoxymethyl)-6-(5-fluoro-2-methoxyphenyl)-2,2,4-trimethyl-1,2-dihydroquinoline]
18 | ≥ 100 | COc1ccc(F)cc1-c1ccc2c(c1COc1cc(Cl)ccc1C)C(C)=CC(C)(C)N2 [Compound 14-41, 5-(5-Chloro-2-methylphenoxymethyl)-6-(5-fluoro-2-methoxyphenyl)-2,2,4-trimethyl-1,2-dihydroquinoline]
19 | ≥ 100 | COc1ccc(F)cc1-c1ccc2c(c1COc1cc(F)ccc1C)C(C)=CC(C)(C)N2 [Compound 14-43, 6-(5-Fluoro-2-methoxyphenyl)-5-(5-fluoro-2-methylphenoxymethyl)-2,2,4-trimethyl-1,2-dihydroquinoline]
20 | ≥ 100 | C=CCc1ccccc1OCc1c(-c2cc(F)ccc2OC)ccc2c1C(C)=CC(C)(C)N2 [Compound 14-45, 5-(2-Allylphenoxymethyl)-6-(5-fluoro-2-methoxyphenyl)-2,2,4-trimethyl-1,2-dihydroquinoline]
21 | ≥ 100 | C=CCc1ccccc1OCc1c(-c2cc(Cl)ccc2OC)ccc2c1C(C)=CC(C)(C)N2 [Compound 14-47, 5-(2-Allylphenoxymethyl)-6-(5-chloro-2-methoxyphenyl)-2,2,4-trimethyl-1,2-dihydroquinoline]
22 | ≥ 100 | COc1ccc([N+](=O)[O-])cc1-c1ccc2c(c1COc1cc(F)ccc1C)C(C)=CC(C)(C)N2 [Compound 14-48, 5-(5-Fluoro-2-methylphenoxymethyl)-6-(2-methoxy-5-nitrophenyl)-2,2,4-trimethyl-1,2-dihydroquinoline]
23 | 76 | COc1ccc(OCc2ccccc2)cc1-c1ccc2c(c1COc1cc(F)ccc1C)C(C)=CC(C)(C)N2 [Compound 15-2, 6-(5-Benzyloxy-2-methoxyphenyl)-5-(5-fluoro-2-methylphenoxymethyl)-2,2,4-trimethyl-1,2-dihydroquinoline]
24 | ≥ 100 | C=CCOc1ccc(-c2ccc3c(c2COc2cc(F)ccc2C)C(C)=CC(C)(C)N3)c(OC)c1 [Compound 15-7, 6-(4-Allyloxy-2-methoxyphenyl)-5-(5-fluoro-2-methylphenoxymethyl)-2,2,4-trimethyl-1,2-dihydroquinoline]
